Patent publication US12023345B2, “Compositions and methods for treating lysosomal disorders” (RUSH UNIVERSITY MEDICAL CENTER, priority 2014, dated 2024)

Legend:
Assay type in all cases: cell-based
[1] = test system: LAMP2; test: LAMP2 protein by Western blot and immunocytochemistry in mouse primary brain cells; conditions: for level of LAMP2 (Western blot): different doses of aspirin
Protocol: Immunostaining of Cells: Immunocytochemistry was performed as described earlier (29). Briefly, 8 well chamber slides containing mouse primary astrocytes, mouse neurons were cultured to 70-80% confluence were fixed with chilled Methanol (Fisher Scientific, Waltham, MA) overnight, followed by two brief rinses with filtered PBS. Samples were blocked with 2% BSA (Fisher Scientific) in PBS containing Tween 20 (Sigma) and Triton X-100 (Sigma) for 30 min and incubated at room temperature under shaking conditions for 2 hr in PBS containing the following anti-mouse primary antibodies: TFEB (1:1000; Abcam), GFAP, (1:1000; DAKO), LAMP2 (1:500, Abcam), NeuN (1:500, Millipore), and MAP2 (1:200, Millipore). […] Following four 15 minute washes with filtered PBS, cells were incubated for 4-5 min with 4′, 6-diamidino-2-phenylindole (DAPI, 1:10,000; Sigma). The samples were run in an EtOH and Xylene (Fisher) gradient, mounted, and observed under Olympus BX41 fluorescence microscope.
(§1) Immunoblotting: Western blotting was conducted as described earlier (31, 32) with modifications. Briefly, cells were scraped in 1× RIPA buffer, protein was measured using Bradford reagent and sodium dodecyl sulfate (SDS) buffer was added and electrophoresed on NuPAGE® Novex® 4-12% Bis-Tris gels (Invitrogen) and proteins transferred onto a nitrocellulose membrane (Bio-Rad) using the Thermo-Pierce Fast Semi-Dry Blotter.
The membrane was then washed for 15 min in TBS plus Tween 20 (TBST) and blocked for 1 hr in TBST containing BSA. Next, membranes were incubated overnight at 4° C. under shaking conditions with the following 1° antibodies; TFEB (1:1000, Abcam), LAMP2 (1:500, Abcam) and β-actin (1:800; Abcam, Cambridge, MA). The next day, membranes were washed in TBST for 1 hr, incubated in 2° antibodies against 1° antibody hosts (all 1:10,000; Jackson ImmunoResearch) for 1 hr at room temperature, washed for one more hour and visualized under the Odyssey® Infrared Imaging System (Li-COR, Lincoln, NE).

[2] = test system: Lamp2, Limp2 and Npc1; test: mRNA of lysosomal genes by real-time PCR in mouse primary astrocytes; conditions: 5 μM aspirin, serum-free
Protocol: Quantitative Real-Time PCR: The mRNA quantification was performed using the ABIPrism7700 sequence detection system (Applied Biosystems, Foster City, CA) using SYBR Select master mix (Applied Biosystems). The mRNA expression of the targeted genes was normalized to the level of Gapdh mRNA and data was processed by the ABI Sequence Detection System 1.6 software.

[3] = test system: TPP1; test: TPP1 protein by Western blot in primary mouse astrocytes
Protocol: (§2) 12(A) Cells were treated with different concentrations of aspirin for 24 h under serum-free condition followed by Western blot for TPP1. 12(B) Cells were treated with 5 μM aspirin for different time periods under serum-free condition followed by Western blot for TPP1. Actin was run as a house keeping molecule. 12(C) Cells were treated with different concentrations of aspirin for 24 h under serum-free condition followed by TPP1 activity assay using cell extract containing 5 μg of total protein and Ala-Ala-Phe 7-amido-4-methylcoumarin as substrate. Results represent three independent experiments.
as §1

[4] = test system: Tfeb promoter (pTFEB-Luc); test: Tfeb promoter-driven luciferase reporter activity in mouse primary astrocytes; conditions: p(WT)Tfeb-Luc, different doses of aspirin, 4 h
Excerpt: Construction of Mouse Tfeb Promoter-driven Reporter Construct: Mouse genomic DNA isolated from primary mouse astrocytes was used as the template during PCR. The 5′ flanking sequence of the mouse TFEB (−916/+61) gene was isolated by PCR. Primers were designed from gene bank sequences. Tfeb: sense: 5′- acgcgt CCAGGAGCCAGGGACGGGGTACATCTC -3′ (SEQ ID NO.: 11); antisense: 5′- agatct AAGGAGAAACTGAGTCCGGGCAGAAGG -3′ (SEQ ID NO.: 12). The sense primer was tagged with an Mlu1 restriction enzyme site while the antisense primer was tagged with Bgl II. The PCR was performed using an Advantage-2 PCR kit (Clontech) according to the manufacturer's instruction. The resulting fragments were gel purified and ligated into the PGEM-TEasy vector (Promega). These fragments were further subcloned into the PGL-3 Enhancer vector after digestion with corresponding restriction enzymes and verification by sequencing ACGT Inc. DNA Sequencing Services. […]
Assay of Tfeb Promoter-driven Reporter Activity: Cells plated at 50-60% confluence in 12-well plates were cotransfected with 0.25 μg of pTFEB(WT)-Luc, pTFEB(Mu)-Luc and using Lipofectamine Plus (Invitrogen). […] Firefly luciferase activities were analyzed in cell extracts using the Luciferase Assay System kit (Promega) in a TD-20/20 Luminometer (Turner Designs) as described earlier (33, 34).

[5] = test system: TPP1; test: TPP1 activity assay on cell extract of primary mouse astrocytes; conditions: 24 h
Protocol: as §2

[6] = test system: mouse primary astrocytes; test: LysoTracker staining of mouse primary astrocytes (lysosomal biogenesis); conditions: 24 h
Protocol: [The procedure below names another cell line; the source lists this cell line under the same test.] LysoTracker Staining: Fibroblasts cultured to 70-80% confluence were subjected to different stimuli under reduced serum (2%) DMEM medium followed by incubation with 75 nM LysoTracker Red DND99 (Invitrogen) for 45 mins. Cells were then washed thoroughly with filtered PBS and mounted on glass slides and viewed under BX41 fluorescence microscope

SMILES: CC(=O)Oc1ccccc1C(=O)O [aspirin]
- level of LAMP2 (Western blot) ([1]; PPARα (−/−) astrocytes, 24 h): not PPARα (−/−)
- level of LAMP2 (Western blot) ([1]; PPARβ (−/−) astrocytes, 24 h): dose-dependently increased the level of LAMP2
- level of LAMP2 (Western blot) ([1]; WT astrocytes, 24 h): dose-dependently increased the level of LAMP2
- LAMP2 protein expression (Western blot), time course ([1]; astrocytes, 5 μM aspirin, serum-free): time-dependent increase
- LAMP2 protein expression (Western blot), dose ([1]; astrocytes, aspirin 2 and 5 μM, 24 h): increase in LAMP2 protein expression
- LAMP2 mRNA expression (real-time PCR), time course [2]: time-dependent increase in LAMP2 mRNA
- earliest time at which increase in TPP1 protein was evident ([3]; 5 μM aspirin): 2 h
- time of maximum increase in TPP1 protein ([3]; 5 μM aspirin): 12 h
- TPP1 protein (Western blot), dose ([3]; aspirin 2 and 5 μM, 24 h): increase in TPP1 protein
- Tfeb promoter driven luciferase activity [4]: induced Tfeb promoter driven luciferase activity
- TPP1 activity ([5]; aspirin 10 μM): not 10 μM
- TPP1 activity ([5]; aspirin 2 and 5 μM): increase in TPP1 activity
- lysosomal biogenesis (lyso-tracker staining) ([6]; PPARα (−/−) astrocytes, 5 μM aspirin): not PPARα (−/−)
- lysosomal biogenesis (lyso-tracker staining) ([6]; PPARβ (−/−) astrocytes, 5 μM aspirin): increased lysosomal biogenesis
- lysosomal biogenesis (lyso-tracker staining) ([6]; WT astrocytes, 5 μM aspirin): increased lysosomal biogenesis
- lysosomal biogenesis (lyso-tracker staining) ([6]; astrocytes, aspirin 10 μM, serum-free): not very potent in increasing lysosomal biogenesis
- lysosomal biogenesis (lyso-tracker staining) ([6]; astrocytes, aspirin 2 and 5 μM, serum-free): markedly increased lysosomal biogenesis
